ChEMBL document CHEMBL2073931, “Interaction between methotrexate and nonsteroidal anti-inflammatory drugs in organic anion transporter” (Eur J Pharmacol, 2000)

Molecular target: T1, Solute carrier family 22 member 6 (Rattus norvegicus, UniProt O35956)
T1 sequence (O35956 whole entry): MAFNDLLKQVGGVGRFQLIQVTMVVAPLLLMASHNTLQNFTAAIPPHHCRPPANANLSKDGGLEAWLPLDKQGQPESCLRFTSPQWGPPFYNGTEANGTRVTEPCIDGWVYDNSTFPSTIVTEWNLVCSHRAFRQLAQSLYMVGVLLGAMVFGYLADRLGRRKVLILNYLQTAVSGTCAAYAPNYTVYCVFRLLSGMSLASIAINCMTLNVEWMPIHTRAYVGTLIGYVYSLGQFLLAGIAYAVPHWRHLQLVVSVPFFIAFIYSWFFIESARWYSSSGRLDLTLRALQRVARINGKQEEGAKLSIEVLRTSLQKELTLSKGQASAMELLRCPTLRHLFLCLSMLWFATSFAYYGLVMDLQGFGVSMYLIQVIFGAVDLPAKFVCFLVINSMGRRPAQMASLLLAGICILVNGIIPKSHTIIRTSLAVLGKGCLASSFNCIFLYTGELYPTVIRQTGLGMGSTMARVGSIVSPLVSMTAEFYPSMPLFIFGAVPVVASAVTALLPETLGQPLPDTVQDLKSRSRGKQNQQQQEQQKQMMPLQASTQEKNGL
Test: TP_TRANSPORTER: inhibition of MTX uptake in Xenopus laevis oocytes
Assay type: functional, cell-based, Oocyte
Details: for Activity: xenopus laevis, oocyte

SMILES: CC(C(=O)O)c1cccc(C(=O)c2ccccc2)c1 (centres undefined) [KETOPROFEN]
- IC50: 500 nM

SMILES: COc1ccc2c(c1)c(CC(=O)O)c(C)n2C(=O)c1ccc(Cl)cc1 [INDOMETHACIN]
- Ki: 4200 nM

SMILES: O=C(O)c1ccccc1Nc1cccc(C(F)(F)F)c1 [FLUFENAMIC ACID]
- Activity: inhibitor [+]

SMILES: CCCCC1C(=O)N(c2ccccc2)N(c2ccccc2)C1=O [PHENYLBUTAZONE]
- Activity: inhibitor [+]
